Measurements taken from patent publication US9090600B2, “Fungicidal 4-substituted-3-{phenyl[(heterocyclylmethoxy)imino]methyl}-1,2,4-oxadizol-5(4H)-one derivatives” (BAYER INTELLECTUAL PROPERTY GMBH, priority 2011, dated 2015).
Marks after values point to notes of the source that are not given here.

Conditions: pH 2.7
For `Nc1cccc(CON=C(c2ccccc2)c2noc(=O)[nH]2)n1` (mixture of isomers) [Example 96], the LogP was 1.2 [a]. For `Cc1cccc(C(=NOCc2cccc(N)n2)c2noc(=O)[nH]2)c1` (mixture of isomers) [Example 121], the LogP was 1.47 [a]. With `C#CCCOC(=O)Nc1cccc(CON=C(C(N)=NO)c2ccccc2)n1` (mixture of isomers) [Example V-1] the LogP was 2.1 [a]. For `CC(C)(C)OC(=O)Nc1cccc(CON=C(C(N)=NO)c2ccccc2F)n1` (mixture of isomers) [Example V-5], the LogP was 2.68 [a]. For `COc1cccc(C(=NOCc2cccc(N)n2)C(N)=NO)c1` (mixture of isomers) [Example V-6], the LogP was 0.58 [a]. With `Cc1cccc(C(=NOCc2cccc(N)n2)C(N)=NO)c1` (mixture of isomers) [Example V-7] the LogP was 0.75 [a]. In the case of `CC(C)(C)OC(=O)Nc1cccc(CON=C(C(N)=NO)c2ccc(F)cc2)n1` (mixture of isomers) [Example V-8], the LogP is reported as 2.68 [a]. In the case of `NC(=NO)C(=NOCc1cccc(N)n1)c1ccccc1` (mixture of isomers) [Example V-9], the LogP is reported as 0.39 [a]. With `NC(=NO)C(=NOCc1csc(N)n1)c1ccccc1Cl` (mixture of isomers) [Example V-10] the LogP was 0.73 [a]. For `CC(C)(C)OC(=O)Nc1cccc(CON=C(C(N)=NO)c2ccccc2)n1` (mixture of isomers) [Example V-11], the LogP was 2.54 [a]. In the case of `NC(=NO)C(=NOCc1cccc(N)n1)c1cccc(F)c1` (mixture of isomers) [Example V-12], the LogP is reported as 0.56 [a]. With `COc1ccc(C(=NOCc2cccc(NC(=O)OC(C)(C)C)n2)C(N)=NO)cc1` (mixture of isomers) [Example V-13] the LogP was 2.51 [a]. With `CC(C)(C)OC(=O)Nc1cccc(CON=C(C(N)=NO)c2ccccc2)n1` (mixture of isomers) [Example V-14] the LogP was 2.57 [a]. With `Cc1ccc(C(=NOCc2csc(N)n2)C(N)=NO)cc1` (mixture of isomers) [Example V-15] the LogP was 0.89 [a]. In the case of `CC(C)C1(C(=O)Nc2cccc(CO/N=C(/c3ccccc3)c3noc(=O)n3C)n2)CC1(Cl)Cl` (racemic) [Example 371], the LogP is reported as 4.35 [a]. In the case of `Cc1ccc(/C(=N/OCc2csc(NC(=O)C3COc4ccccc4O3)n2)c2noc(=O)n2C)cc1` (racemic) [Example 392], the LogP is reported as 3.9 [a]. In the case of `CC#CCC(C)OC(=O)Nc1cccc(CO/N=C(/c2ccccc2)c2noc(=O)n2C)n1` (racemic) [compound 455], the LogP is reported as 3.89 [a]. For `CCCCC(CC)COC(=O)Nc1cccc(CO/N=C(/c2ccccc2)c2noc(=O)n2C)n1` (racemic) [compound 463], the LogP was 5.54 [a]. With `Cn1c(/C(=N\OCc2cccc(NC(=O)OCC3COC(=O)O3)n2)c2ccccc2)noc1=O` (racemic) [compound 474] the LogP was 2.75 [a]. In the case of `CC(CC1CC1)OC(=O)Nc1cccc(CO/N=C(/c2ccccc2)c2noc(=O)n2C)n1` (racemic) [compound 475], the LogP is reported as 4.32 [a]. With `C=CCC(C)OC(=O)Nc1cccc(CO/N=C(/c2ccccc2)c2noc(=O)n2C)n1` (racemic) [compound 479] the LogP was 4.01 [a]. With `C#CCCOC(=O)Nc1cccc(CO/N=C(/c2ccccc2)c2noc(=O)[nH]2)n1` [Example 22] the LogP was 3.09 [a]. With `Cn1c(/C(=N\OCc2csc(NC(=O)COc3ccccc3F)n2)c2ccccc2)noc1=O` [Example 28] the LogP was 3.51 [a]. In the case of `COc1ccccc1OCC(=O)Nc1cccc(CO/N=C(/c2ccccc2)c2noc(=O)n2C)n1` [Example 31], the LogP is reported as 3.8 [a]. In the case of `Cn1c(/C(=N\OCc2csc(NC(=O)COc3ccc(F)cc3)n2)c2ccccc2)noc1=O` [Example 38], the LogP is reported as 3.53 [a]. For `CCCCCOC(=O)Nc1nc(CO/N=C(/c2ccc(C)cc2)c2noc(=O)n2C)cs1` [Example 41], the LogP was 4.41 [a]. With `CC(C)CCCOC(=O)Nc1cccc(CO/N=C(/c2ccccc2)c2noc(=O)n2C)n1` [Example 45] the LogP was 4.81 [a]. With `Cn1c(/C(=N\OCc2cccc(NC(=O)OCCc3cccc(Br)c3)n2)c2ccccc2)noc1=O` [Example 49] the LogP was 4.61 [a]. With `CC(Cc1ccccc1)OC(=O)Nc1cccc(CO/N=C(/c2ccccc2)c2noc(=O)n2C)n1` (stereo not shown) [Example 60] the LogP was 4.49 [a]. In the case of `CC(Oc1cccc(Cl)c1)C(=O)Nc1cccc(CO/N=C(/c2ccccc2)c2noc(=O)n2C)n1` (stereo not shown) [Example 64], the LogP is reported as 4.38 [a]. For `Cn1c(/C(=N\OCc2cccc(NC(=O)COc3ccc(Br)cc3)n2)c2ccccc2)noc1=O` [Example 65], the LogP was 4.2 [a]. For `Cn1c(/C(=N\OCc2cccc(NC(=O)COc3ccc(F)cc3)n2)c2ccccc2)noc1=O` [Example 66], the LogP was 3.73 [a]. For `COc1cccc(OC(C)C(=O)Nc2cccc(CO/N=C(/c3ccccc3)c3noc(=O)n3C)n2)c1` (stereo not shown) [Example 69], the LogP was 3.97 [a]. With `Cc1ccccc1OCC(=O)Nc1cccc(CO/N=C(/c2ccccc2)c2noc(=O)n2C)n1` [Example 76] the LogP was 4.17 [a]. For `Cn1c(/C(=N\OCc2csc(N)n2)c2ccccc2Cl)noc1=O` [Example 90], the LogP was 1.72 [a]. With `Cn1c(/C(=N\OCc2cccc(NC(=O)COC3CCCC3)n2)c2ccccc2)noc1=O` [Example 94] the LogP was 4.04 [a]. In the case of `Cn1c(/C(=N\OCc2cccc(NC(=O)OC(C)(C)C)n2)c2ccccc2F)noc1=O` [Example 97], the LogP is reported as 3.92 [a]. In the case of `Cn1c(/C(=N\OCc2cccc(NC(=O)COc3cccc(Cl)c3)n2)c2ccccc2)noc1=O` [Example 105], the LogP is reported as 4.1 [a]. In the case of `COc1ccccc1OC(C)C(=O)Nc1cccc(CO/N=C(/c2ccccc2)c2noc(=O)n2C)n1` (stereo not shown) [Example 115], the LogP is reported as 4.15 [a]. With `Cn1c(/C(=N\OCc2cccc(NC(=O)COc3ccccc3F)n2)c2ccccc2)noc1=O` [Example 125] the LogP was 3.76 [a]. With `CC(OCc1ccccc1)C(=O)Nc1nc(CO/N=C(/c2ccccc2)c2noc(=O)n2C)cs1` (stereo not shown) [Example 126] the LogP was 3.85 [a]. With `Cc1cccc(OC(C)C(=O)Nc2cccc(CO/N=C(/c3ccccc3)c3noc(=O)n3C)n2)c1` (stereo not shown) [Example 128] the LogP was 4.35 [a]. For `Nc1cccc(CON=C(c2cccc(F)c2)c2noc(=O)[nH]2)n1` [Example 129], the LogP was 1.35 [a]. In the case of `CC(C)(C)OC(=O)Nc1cccc(CO/N=C(/c2ccccc2)c2noc(=O)[nH]2)n1` [Example 135], the LogP is reported as 3.76 [a]. With `COc1cccc(/C(=N/OCc2cccc(N(C(=O)OC(C)(C)C)C(=O)OC(C)(C)C)n2)c2noc(=O)n2C)c1` [Example 141] the LogP was 4.44 [a]. With `COc1cccc(/C(=N/OCc2cccc(NC(=O)OC(C)CC(C)C)n2)c2noc(=O)n2C)c1` (stereo not shown) [Example 149] the LogP was 4.72 [a]. In the case of `CCCCCOC(=O)Nc1nc(CO/N=C(/c2cccc(F)c2)c2noc(=O)n2C)cs1` [Example 150], the LogP is reported as 4.19 [a]. In the case of `CC(OCc1ccccc1)C(=O)Nc1cccc(CO/N=C(/c2ccccc2)c2noc(=O)n2C)n1` (stereo not shown) [Example 156], the LogP is reported as 4.15 [a]. In the case of `COc1ccc(/C(=N/OCc2cccc(N)n2)c2noc(=O)n2C)cc1` [Example 157], the LogP is reported as 1.35 [a]. For `Cn1c(/C(=N\OCc2csc(NC(=O)COc3ccccc3Br)n2)c2ccccc2)noc1=O` [Example 159], the LogP was 3.89 [a]. With `CCCCC(C)(C)C(=O)Nc1nc(CO/N=C(/c2ccccc2)c2noc(=O)n2C)cs1` [Example 160] the LogP was 4.48 [a]. For `Cn1c(/C(=N\OCc2cccc(NC(=O)SC(C)(C)C)n2)c2ccccc2)noc1=O` [Example 162], the LogP was 4.39 [a]. With `Cn1c(/C(=N\OCc2csc(NC(=O)COc3ccc(Cl)cc3)n2)c2ccccc2)noc1=O` [Example 164] the LogP was 3.85 [a]. For `CCCCC(=O)Nc1nc(CO/N=C(/c2ccc(C)cc2)c2noc(=O)n2C)cs1` [Example 169], the LogP was 3.7 [a]. For `Cn1c(/C(=N\OCc2cccc(NC(=O)c3ccc(I)cc3)n2)c2ccccc2)noc1=O` [Example 174], the LogP was 4.29 [a]. With `CC(Oc1cccc(Br)c1)C(=O)Nc1cccc(CO/N=C(/c2ccccc2)c2noc(=O)n2C)n1` (stereo not shown) [Example 179] the LogP was 4.46 [a]. With `COc1ccccc1C(=O)Nc1cccc(CO/N=C(/c2ccccc2)c2noc(=O)n2C)n1` [Example 181] the LogP was 3.87 [a]. For `CCCCOC(=S)Nc1cccc(CO/N=C(/c2ccccc2)c2noc(=O)n2C)n1` [Example 183], the LogP was 4.53 [a]. With `CCC1(C(=O)Nc2cccc(CO/N=C(/c3ccccc3)c3noc(=O)n3C)n2)C(C)C1(Cl)Cl` (stereo not shown) [Example 189] the LogP was 4.35 [a]. In the case of `CC(C)(C)OC(=O)Nc1cccc(CO/N=C(\c2noc(=O)[nH]2)c2ccccc2F)n1` [Example 193], the LogP is reported as 3.68 [a]. For `Cn1c(/C(=N\OCc2csc(NC(=O)COCc3ccccc3)n2)c2ccccc2)noc1=O` [Example 194], the LogP was 3.6 [a]. For `Cn1c(/C(=N\OCc2cccc(NC(=O)Cc3ccc(Cl)cc3)n2)c2ccccc2)noc1=O` [Example 196], the LogP was 3.92 [a]. In the case of `Cn1c(/C(=N\OCc2csc(NC(=O)Cc3ccccc3)n2)c2cccc(F)c2)noc1=O` [Example 203], the LogP is reported as 3.46 [a]. For `CC(Oc1ccc(Br)cc1)C(=O)Nc1cccc(CO/N=C(/c2ccccc2)c2noc(=O)n2C)n1` (stereo not shown) [Example 204], the LogP was 4.46 [a]. For `Cn1c(/C(=N\OCc2cccc(NC(=O)OCCCC(F)(F)F)n2)c2ccccc2)noc1=O` [Example 205], the LogP was 3.85 [a]. For `Cc1ccccc1OCC(=O)Nc1nc(CO/N=C(/c2ccccc2)c2noc(=O)n2C)cs1` [Example 213], the LogP was 3.85 [a]. For `CC(C)(C)OC(=O)Nc1cccc(CO/N=C(/c2ccc(F)cc2)c2noc(=O)[nH]2)n1` [Example 214], the LogP was 3.78 [a]. In the case of `COc1ccc(C(=O)Nc2cccc(CO/N=C(/c3ccccc3)c3noc(=O)n3C)n2)cc1` [Example 217], the LogP is reported as 3.53 [a]. With `Cn1c(/C(=N\OCc2csc(NC(=O)C(F)(F)Oc3ccccc3)n2)c2ccccc2)noc1=O` [Example 220] the LogP was 3.89 [a]. With `Cn1c(/C(=N\OCc2cccc(NC(=O)C3(c4ccc(Cl)cc4Cl)CC3)n2)c2ccccc2)noc1=O` [Example 222] the LogP was 4.96 [a]. In the case of `CC(Oc1ccccc1Cl)C(=O)Nc1cccc(CO/N=C(/c2ccccc2)c2noc(=O)n2C)n1` (stereo not shown) [Example 231], the LogP is reported as 4.41 [a]. For `Cn1c(/C(=N\OCc2csc(NC(=O)C3COc4ccccc4O3)n2)c2cccc(F)c2)noc1=O` (stereo not shown) [Example 234], the LogP was 3.7 [a]. With `Cn1c(/C(=N\OCc2cccc(NC(=O)OCCc3ccc(Br)cc3)n2)c2ccccc2)noc1=O` [Example 238] the LogP was 4.63 [a].
